Test results taken from ChEMBL document CHEMBL3885881, “DrugMatrix”.

Species: Rattus norvegicus
Experiment: DrugMatrix - Regimen: Daily Repeat
Type: toxicity, organism-based, Sprague-Dawley
Design: regimen Daily Repeat, gender Male, age 6-8 weeks
Settings: in vivo, sc, 54 mg/kg, route subcutaneous, dose level Low, […]
[1] = 72 h, tissue Plasma, time 3 day
[2] = 120 h, tissue Blood, time 5 day
[3] = 120 h, tissue Plasma, time 5 day

NYSTATIN
ABSOLUTE BASOPHIL (72 h, tissue Blood, time 3 day): 0 CELLS/uL | ABSOLUTE EOSINOPHIL (72 h, tissue Blood, time 3 day): 50 CELLS/uL | ABSOLUTE LYMPHOCYTE (72 h, tissue Blood, time 3 day): 13843 CELLS/uL | ABSOLUTE MONOCYTE (72 h, tissue Blood, time 3 day): 920.67 CELLS/uL | ABSOLUTE SEGMENTED NEUTROPHIL (72 h, tissue Blood, time 3 day): 2486.33 CELLS/uL | BASOPHIL (72 h, tissue Blood, time 3 day): 0% | EOSINOPHIL (72 h, tissue Blood, time 3 day): 0.33% | ERYTHROCYTE COUNT (72 h, tissue Blood, time 3 day): 5.95 x10E6/uL | HEMATOCRIT (72 h, tissue Blood, time 3 day): 34.97% | HEMOGLOBIN (72 h, tissue Blood, time 3 day): 13.07 G/DL | LEUKOCYTE COUNT (72 h, tissue Blood, time 3 day): 17.3 x10E3/uL | LYMPHOCYTE (72 h, tissue Blood, time 3 day): 80.33% | MEAN CORPUSCULAR HEMOGLOBIN (72 h, tissue Blood, time 3 day): 21.93 pg | MEAN CORPUSCULAR HEMOGLOBIN CONCENTRATION (72 h, tissue Blood, time 3 day): 37.37 G/DL | MEAN CORPUSCULAR VOLUME (72 h, tissue Blood, time 3 day): 58.73 fL | MONOCYTE (72 h, tissue Blood, time 3 day): 5.33% | NEUTROPHIL (72 h, tissue Blood, time 3 day): 14% | NUCLEATED RED BLOOD CELLS (72 h, tissue Blood, time 3 day): 0 /100WBC | PLATELET COUNT (72 h, tissue Blood, time 3 day): 1209 x10E3/uL | ALANINE AMINOTRANSFERASE [1]: 35 u/L | ALBUMIN [1]: 2.97 G/DL | ALKALINE PHOSPHATASE [1]: 281 u/L | ASPARTATE AMINOTRANSFERASE [1]: 75.67 u/L | BLOOD UREA NITROGEN [1]: 18.67 mg/dL | CARBON DIOXIDE [1]: 21.33 mmol/L | CHOLESTEROL [1]: 62.33 mg/dL | CREATINE PHOSPHOKINASE [1]: 212.67 u/L | CREATININE [1]: 0.18 mg/dL | LACTATE DEHYDROGENASE [1]: 276.67 u/L | LIPASE [1]: 6.67 u/L | PHOSPHORUS [1]: 11.77 mg/dL | POTASSIUM [1]: 6.36 MEQ/L | SODIUM [1]: 149.8 MEQ/L | TOTAL BILIRUBIN [1]: 0.13 mg/dL | URIC ACID [1]: 2 mg/dL | ABSOLUTE BASOPHIL [2]: 0 CELLS/uL | ABSOLUTE EOSINOPHIL [2]: 278 CELLS/uL | ABSOLUTE LYMPHOCYTE [2]: 19000 CELLS/uL | ABSOLUTE MONOCYTE [2]: 554 CELLS/uL | ABSOLUTE SEGMENTED NEUTROPHIL [2]: 5634.67 CELLS/uL | BASOPHIL [2]: 0% | EOSINOPHIL [2]: 1% | ERYTHROCYTE COUNT [2]: 5.2 x10E6/uL | HEMATOCRIT [2]: 32.27% | HEMOGLOBIN [2]: 12.13 G/DL | LEUKOCYTE COUNT [2]: 25.47 x10E3/uL | LYMPHOCYTE [2]: 76.67% | MEAN CORPUSCULAR HEMOGLOBIN [2]: 23.37 pg | MEAN CORPUSCULAR HEMOGLOBIN CONCENTRATION [2]: 37.63 G/DL | MONOCYTE [2]: 2% | NEUTROPHIL [2]: 20.33% | NUCLEATED RED BLOOD CELLS [2]: 0 /100WBC | PLATELET COUNT [2]: 1747 x10E3/uL | ALANINE AMINOTRANSFERASE [3]: 31.33 u/L | ALBUMIN [3]: 2.63 G/DL | ALKALINE PHOSPHATASE [3]: 261.33 u/L | ASPARTATE AMINOTRANSFERASE [3]: 76 u/L | BLOOD UREA NITROGEN [3]: 22.33 mg/dL | CARBON DIOXIDE [3]: 24.67 mmol/L | CHLORIDE [3]: 107.33 MEQ/L | CHOLESTEROL [3]: 48.67 mg/dL | CREATINE PHOSPHOKINASE [3]: 286 u/L | CREATININE [3]: 0.17 mg/dL | GLUCOSE [3]: 135 mg/dL | LACTATE DEHYDROGENASE [3]: 423.33 u/L | LIPASE [3]: 7 u/L | POTASSIUM [3]: 6.66 MEQ/L | SODIUM [3]: 147.07 MEQ/L | TOTAL BILIRUBIN [3]: 0.1 mg/dL | TOTAL PROTEIN [3]: 5.43 G/DL | URIC ACID [3]: 1.73 mg/dL
